Assay results taken from patent US9370516B2 (Pfizer Inc., priority 2012, dated 2016).
Where “and” joins values, the source holds several entries; their conditions need not be identical. Identical values can stand only once.

What was measured:
dog GHSR1a = target: T1, dog GHSR1a (Canis lupus familiaris, UniProt A5HKU8); experiment: Radioligand binding filtration format assay, dog GHSR1a; conditions: pre-incubation 90 minutes; read-out: Dog GHS-1aR Filter Ki (converted)
T1 construct: dog (NM_001099945.1)
T1 sequence (A5HKU8 1-349): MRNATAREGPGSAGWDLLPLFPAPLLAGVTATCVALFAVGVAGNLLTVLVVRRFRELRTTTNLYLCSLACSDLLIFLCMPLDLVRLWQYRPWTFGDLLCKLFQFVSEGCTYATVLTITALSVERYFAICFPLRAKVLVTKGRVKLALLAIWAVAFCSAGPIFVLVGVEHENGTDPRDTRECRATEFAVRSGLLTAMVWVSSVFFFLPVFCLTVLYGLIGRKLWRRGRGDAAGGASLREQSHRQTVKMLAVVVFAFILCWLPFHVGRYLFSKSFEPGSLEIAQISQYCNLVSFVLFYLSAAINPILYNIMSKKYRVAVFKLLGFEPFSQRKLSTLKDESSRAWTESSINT
Description: (§1) Ghrelin binding assays were performed in a final volume of 100 μl containing […] patient GHSR1a (HEK293 Tetracycline-Inducible cell line expressing the patient growth secretagogue receptor 1a; prepared as membranes) and 50 pM [^125I] ghrelin (Perkin Elmer Life Sciences, NEX-388), plus varying concentrations of test compound or vehicle.
(§2) Assays were initiated by addition of 23 μl assay buffer (50 mM HEPES, 10 mM MgCl2, 0.2% BSA, EDTA-free protease inhibitor tablets—1 tablet/50 ml buffer, pH 7.4), 25 μl 4 mg/ml hGHSR1a membrane and 50 μl of 100 pM [^125I] ghrelin, both in assay buffer.
(§3) Radioligand binding filtration format assays for dog (NM_001099945.1), monkey (XM_001084886.1), mouse (NM_177330), and rat (NM_032075) GHSR1a (all expressed in unique HEK293 Tetracycline-Inducible cell lines) were performed in an identical manner as described for patient GHSR1a except that the final amount of membrane to be used is as follows: 2 μg dog GHSR, 250 ng monkey GHSR, 200 ng mouse GHSR, or 125 ng rat GHSR.

rat GHSR1a = rat GHSR1a (Rattus norvegicus, UniProt O08725); experiment: biochemical; conditions: Rat GHS-1aR Filter Ki, pre-incubation 90 minutes
Chain of rat GHSR1a (O08725 whole entry): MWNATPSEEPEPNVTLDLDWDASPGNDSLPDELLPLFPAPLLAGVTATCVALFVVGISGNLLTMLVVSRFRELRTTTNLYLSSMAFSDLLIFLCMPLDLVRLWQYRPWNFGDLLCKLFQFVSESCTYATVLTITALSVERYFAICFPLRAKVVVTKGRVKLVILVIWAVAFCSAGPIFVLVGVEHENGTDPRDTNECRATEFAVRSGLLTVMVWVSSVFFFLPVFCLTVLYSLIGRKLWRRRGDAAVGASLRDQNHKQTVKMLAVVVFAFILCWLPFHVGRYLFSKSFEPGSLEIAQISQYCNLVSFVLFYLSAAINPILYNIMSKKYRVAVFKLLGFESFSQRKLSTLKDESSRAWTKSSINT
Description: as §1
as §2, with “Briefly, assays were prepared at room temperature in 96-well plates (Costar, 3357) containing 2 μl of test compound in DMSO (or DMSO as vehicle). Assays” for “Assays”
(§4) The mixture was incubated for 90 minutes at room temperature followed by transfer to a 0.3% PEI-treated, 96-well glass fiber filtration plate (Perkin Elmer, 6005174). The mixture was suctioned dry with vacuum and immediately washed 3 times with 200 μl ice cold 50 mM Tris pH 7.5. Plates were allowed to dry overnight at room temperature and 30 μl Supermix scintillant (Perkin Elmer, 1200-439) is added to each well. The amount of receptor-ligand complex was determined by liquid scintillation counting using a 1450 Microbeta Trilux (Wallac). […]

mouse GHSR1a = mouse GHSR1a (Mus musculus, UniProt Q99P50); experiment: biochemical; conditions: Mouse GHS-1aR Filter Ki, pre-incubation 90 minutes
Chain of mouse GHSR1a (Q99P50 whole entry): as the sequence (O08725 whole entry) above, with P30S, A249S counted along it
Description: as §1
as §2, with “Briefly, assays were prepared at room temperature in 96-well plates (Costar, 3357) containing 2 μl of test compound in DMSO (or DMSO as vehicle). Assays” for “Assays”
as §4

patient GHSR1a [1] = target: T2, patient GHSR1a (Homo sapiens, UniProt Q92847)
T2 sequence (Q92847 whole entry): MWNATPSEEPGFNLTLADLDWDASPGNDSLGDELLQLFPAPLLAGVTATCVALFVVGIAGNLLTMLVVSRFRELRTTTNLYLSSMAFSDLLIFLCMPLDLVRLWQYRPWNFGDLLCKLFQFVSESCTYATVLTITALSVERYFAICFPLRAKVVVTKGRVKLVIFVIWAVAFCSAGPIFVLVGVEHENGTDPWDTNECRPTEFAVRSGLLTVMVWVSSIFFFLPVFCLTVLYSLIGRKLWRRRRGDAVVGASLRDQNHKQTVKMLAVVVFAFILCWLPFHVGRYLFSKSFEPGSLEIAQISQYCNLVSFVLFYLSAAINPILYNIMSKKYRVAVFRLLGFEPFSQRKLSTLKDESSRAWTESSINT
From the text: The assay monitors the ligand-dependent exchange of GDP for GTP. GPCR activation results in an increase in fluorescence as receptor-bound GDP is replaced by Europium-labeled GTP.

Male Wistar Han rats = experiment: Locomotor activity after single oral dose; assay type: in vivo, rat
Description: (§5) Male Wistar Han rats were administered a single dose (1, 10, 50, or 150 mg/kg) of (R)-2-(2-methylimidazo[2,1-b]thiazol-6-yl)-1-(2-(5-(6-methylpyrimidin-4-yl)-2,3-dihydro-1H-inden-1-yl)-2,7-diazaspiro[3.5]nonan-7-yl)ethanone (Example 1) via oral gavage to assess the effects of Example 1 on locomotor activity over a 21 hour period (FIG. 1). Animals were habituated to the locomotor apparatus one hour prior to dosing. The lights were turned off at 4 pm and turned on at 4 am. Animals were dosed at 4 pm. Activity was monitored post-dose for 20 hours. Plasma, brains and CSF were taken from a satellite group of animals at Tmax (30 minutes post dosing).

male rhesus monkeys = experiment: Primate study of sleep duration and food intake after evening dosing; assay type: in vivo, Macaca mulatta
From the text: In a primate study, the effect of Example 1 on sleep duration and food intake three hours post evening dosing Example 1 was studied dosing either once a day (QD) or twice a day (BID). Eight healthy adult (5.8 to 9.7 years of age) male rhesus monkeys, (Macaca mulatta, of Indian origin) were used. Animals were studied in parallel. According to a cross-over design, four of the animals received Example 1 (or Vehicle as a control) QD during the first phase of the study and BID during the second phase of the study. A reverse treatment schedule was used for the remaining four animals. When Example 1 was administered QD, the single dose was administered in the evening. Each treatment period lasted 28-30 consecutive days. Vehicle treatment lasted 10-14 days, immediately preceding the phase where Example 1 was administered. Animals were also kept in their sleep/circadian chambers to become familiar with them. Treatment was administered as a liquid solution, dispensed automatically using a timer-controlled pump. Throughout treatment periods, animals were maintained in light-controlled and sound attenuated sleep/circadian chambers, under constant conditions of dim light, in order to determine the intrinsic rhythms of sleep/activity and self-administered food intake. Sleep/activity cycle and sleep duration was documented using continuous on-line actigraphic image analysis technique, as described in Masuda et al., J Biol Rhythms. 2010 October; 25(5):361-71, Intrinsic activity rhythms in Macaca mulatta: their entrainment to light and melatonin. A software algorithm for actigraphic data analysis of sleep versus wakefulness in rhesus monkeys is explained in Zhdanova et al., J Biol Rhythms. 2011 April; 26(2):149-59. Aging of intrinsic circadian rhythms and sleep in a diurnal nonhuman primate, Macaca mulatta. Sleep onset and duration estimates were based on the comparisons between polysomnographic and actigraphic sleep in this species. Each circadian chamber was equipped with an individual touch-screen monitor, connected to an automatic pellet dispenser (ENV-203-1000, Med Associates Inc., St. Albans, Vt.). This allowed for ad libitum around the clock self-administration of 1 g food pellets (Nutritionally complete dustless precision pellets, Bio-Serv, Frenchtown, N.J.) via pressing a moving on-screen target. The time each pellet dispensed was documented. Data analysis was conducted using linear mixed model (SPSS), with the level of significance at p<0.05. Data were presented as group means (standard error of the means (SEM)) for each treatment condition: QD or BID administration of vehicle or Example 1.

monkey GHSR1a = target: T3, monkey GHSR1a (Macaca mulatta, UniProt F6Z4B1); experiment: Radioligand binding filtration format assay, monkey GHSR1a; conditions: pre-incubation 90 minutes; read-out: Primate GHS-1aR Filter Ki (converted)
T3 construct: monkey (XM_001084886.1)
T3 sequence (F6Z4B1 1-366): as the sequence (Q92847 whole entry) above, with P6A, D20E, Q36R, A59S, V163I counted along it
Description: as §1, §2, §3

patient GHSR1a [2] = target: T2, patient GHSR1a; experiment: biochemical; conditions: for Ki: Human GHS-1aR Filter Ki
Description: (§6) The SPA format was utilized for high throughput screening of test compounds and filter binding served for more comprehensive binding characterization. In both formats test compound affinity is expressed as Ki value, defined as the concentration of compound required to decrease [^125I] ghrelin binding by 50% for a specific membrane batch at a given concentration of radioligand.
Patient Ghrelin Filter Binding Assay
as §1
as §2, with “Briefly, assays were prepared at room temperature in 96-well plates (Costar, 3357) containing 2 μl of test compound in DMSO (or DMSO as vehicle). Assays” for “Assays”
The mixture was incubated for 90 minutes at room temperature followed by transfer to a 0.3% PEI-treated, 96-well glass fiber filtration plate (Perkin Elmer, 6005174). The mixture was suctioned dry with vacuum and immediately washed 3 times with 200 μl ice cold 50 mM Tris pH 7.5. Plates were allowed to dry overnight at room temperature and 30 μl Supermix scintillant (Perkin Elmer, 1200-439) is added to each well. The amount of receptor-ligand complex was determined by liquid scintillation counting using a 1450 Microbeta Trilux (Wallac).

humans = experiment: Clinical studies B3301001, B3301002, B3301007; assay type: in vivo, human
Description: Patients were administered Example 1 as an extemporaneously prepared suspension in B3301001, B3301002, and the IR in B3301007 and as an extemporaneously prepared osmotic capsule (EPOC) in B3301007. […] Dose related increase in heart rate (up to ˜10 beats per minute) as well as attenuation of both ghrelin-induced growth hormone secretion and postprandial glucose were seen after acute dosing.

[3] = Plasma and brain levels 30 minutes post dosing; assay type: in vivo, rat
Description: as §5

[4] = target: broad panel of receptors, transporters, ion channels, and enzymes; experiment: Selectivity against a broad panel
patient GHSR1a [5] = target: T2, patient GHSR1a; conditions: pre-incubation 8 hours
From the text: as §6

[6] = 10 mg/kg oral gavage, 35-65 minutes post dosing
[7] = 50 mg/kg oral gavage, 35-65 minutes post dosing
[8] = QD and BID groups, N=8 per group, p<0.01
[9] = individual animal, evening QD, throughout the treatment period

Ki (dog GHSR1a): 3.56 nM and 3.57 nM | Ki (rat GHSR1a): 3.19 nM and 3.2 nM | Ki (mouse GHSR1a): 7.7 nM | functionality of the test compound (patient GHSR1a [1]): inverse agonist | hyperactivity (Male Wistar Han rats; any dose (1-150 mg/kg)): did not induce hyperactivity | Ki (monkey GHSR1a): 1.83 nM | Ki (patient GHSR1a [2]; pre-incubation 90 minutes): 2.49 nM and 2.5 nM | Ki (patient GHSR1a [2]; pre-incubation 24 hours): 1.42 nM | Kd (patient GHSR1a [2]; Human GHS-1aR Filter Motulsky Kd, Equilibrium 4.07 hours): 3.04 nM | Kd (patient GHSR1a [2]; human Kd via Patient Ghrelin Filter Binding Assay): 3 nM | Brain (nM free) ([3]; 1 mg/kg oral): 1.6 nM free | Plasma (nM free) ([3]; 1 mg/kg oral): 18 nM free | Brain (nM free) ([3]; 10 mg/kg oral): 16 nM free | Plasma (nM free) ([3]; 10 mg/kg oral): 184 nM free | Brain (nM free) ([3]; 50 mg/kg oral): 80 nM free | Plasma (nM free) ([3]; 50 mg/kg oral): 856 nM free | Brain (nM free) ([3]; 150 mg/kg oral): 148 nM free | Plasma (nM free) ([3]; 150 mg/kg oral): 1704 nM free | IC50 [4]: > 1000 nM | Human GHS-1aR SPA Ki (patient GHSR1a [5]): 2.24 ng/mL
SMILES: Cc1cc(-c2ccc3c(c2)CC[C@H]3N2CC3(CCN(C(=O)Cc4cn5cc(C)sc5n4)CC3)C2)ncn1 [Example 1, (R)-2-(2-methylimidazo[2,1-b]thiazol-6-yl)-1-(2-(5-(6-methylpyrimidin-4-yl)-2,3-dihydro-1H-inden-1-yl)-2,7-diazaspiro[3.5]nonan-7-yl)ethanone]
effect on locomotor activity compared to vehicle (Male Wistar Han rats; 1 mg/kg oral gavage, 35-65 minutes post dosing): no biologically or statistically significant effect | decrease in rearing (Male Wistar Han rats; [6]): 56% | decrease in total locomotor activity (Male Wistar Han rats; [6]): 60% | decrease in rearing (Male Wistar Han rats; [7]): 43% | decrease in total locomotor activity (Male Wistar Han rats; [7]): 48% | total activity compared to vehicle control (Male Wistar Han rats; 150 mg/kg oral gavage, 35-65 minutes post dosing): reduction in total activity which was statistically significant | total activity (Male Wistar Han rats; 20 hours post dosing): no statistically or biologically significant reductions in total activity | change in food intake within 3 hours of evening administration vs vehicle (male rhesus monkeys; [8]): significant decrease in food intake | change in sleep duration within 3 hours of evening treatment vs vehicle (male rhesus monkeys; [8]): significant increase in sleep duration | food intake soon after administration (male rhesus monkeys; [9]): significantly reduced food intake | sleep latency (male rhesus monkeys; [9]): significantly reduced sleep latency | dose related increase in heart rate (humans; after acute dosing): ≤ 10 beats per minute | ghrelin-induced growth hormone secretion (humans; after acute dosing): attenuation | postprandial glucose (humans; after acute dosing): attenuation | safety and tolerability in humans (humans; up to 100 mg BID for 14 days): safe and generally well tolerated
